Laboratory results as given in US20250186541A1, “DLL3 TARGETING PEPTIDES AND CONSTRUCTS THEREOF” (MARIANA ONCOLOGY INC., priority 2023, published 2025).
Numbered stars: 1 amine (or outer) side, 2 acyl side, 3 side chain; on linkers, the order of the positions; unused ones are H or OH. Bridge positions count the residues as written; N and C are the ends. Square brackets hold non-standard residues; d marks the D form. Peptide text beside a SMILES is read from it. * marks the point of attachment. Ala(piperidin-4-yl) = O=C([C@H](CC1CCN([*:3])CC1)N[*:1])[*:2]; DOTA = O=C(O)CN1CCN(CC(=O)O)CCN(CC(=O)*)CCN(CC(=O)O)CC1; Phe(4-CH2NH2) = NCc1ccc(C[C@H](N)C(=O)O)cc1; 1Nal = N[C@@H](Cc1cccc2ccccc12)C(=O)O; 2Nal = N[C@@H](Cc1ccc2ccccc2c1)C(=O)O; Phe(2-Me) = Cc1ccccc1C[C@H](N)C(=O)O; tBuAla = CC(C)(C)C[C@H](N)C(=O)O; αMeD = C[C@](N)(CC(=O)O)C(=O)O; AllylGly = C=CC[C@H](N)C(=O)O; PAF(DOTA) = not defined here; αMeP = C[C@@]1(C(=O)O)CCCN1; NMeS = CN[C@@H](CO)C(=O)O; Ahx = NCCCCCC(=O)O

T1: human DLL3 (Homo sapiens, UniProt Q9NYJ7)
T1 construct: biotin (biotinylated)
T1 sequence (Q9NYJ7 27-618): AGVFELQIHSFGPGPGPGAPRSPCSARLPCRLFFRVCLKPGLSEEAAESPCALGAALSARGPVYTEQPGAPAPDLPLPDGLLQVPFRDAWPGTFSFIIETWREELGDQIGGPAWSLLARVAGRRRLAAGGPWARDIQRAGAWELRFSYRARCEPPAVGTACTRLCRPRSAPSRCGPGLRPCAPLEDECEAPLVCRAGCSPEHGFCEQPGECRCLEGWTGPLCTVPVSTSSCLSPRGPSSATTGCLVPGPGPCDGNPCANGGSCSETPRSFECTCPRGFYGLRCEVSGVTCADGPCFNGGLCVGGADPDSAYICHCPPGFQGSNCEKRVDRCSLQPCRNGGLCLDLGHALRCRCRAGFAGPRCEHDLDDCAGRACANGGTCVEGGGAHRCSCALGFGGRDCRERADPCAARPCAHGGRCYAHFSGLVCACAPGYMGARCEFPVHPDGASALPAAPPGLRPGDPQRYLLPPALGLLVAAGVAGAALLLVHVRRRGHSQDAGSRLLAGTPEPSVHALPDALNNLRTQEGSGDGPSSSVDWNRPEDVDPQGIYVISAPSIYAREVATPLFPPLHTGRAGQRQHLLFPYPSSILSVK


How the values were obtained:
SHP-77 cells [1] = assay: Internalization of [177Lu]Lu-labeled peptide after glycine acid wash, gamma counter internalized fraction; assay type: cell-based, human; settings: [177Lu]Lu-test peptide, 1 h, 37° C., acid wash 50 mM Glycine pH 2.5
Protocol: (§1) Example 4. Cell Binding, Internalization, and Radiolabeling of Targeting Moieties Polypeptides General Procedure for Radiolabeling of RPTs with [^177Lu]LuCl3
(§2) [^177Lu]LuCl3 was received from venders in HCl solution. For every mCi of [^177Lu]LUCl3 added to the reaction vial (1.5 mL Eppendorf vial), ammonium acetate buffer (0.2 M, pH 4.9, 100 μL, containing 1% w/v ascorbic acid and 6% v/v ethanol) and peptide conjugate (1 nmol) was added. The pH of the solution was determined to be approximately 5 by using pH strips. The reaction vial was incubated at 80° C., 700 RPM for 17-20 minutes. A sample from the reaction was analyzed by RP-HPLC using an Agilent Infinity II 1260 HPLC to determine reaction completion and radiochemical purity. HPLC conditions: Waters XBridge BEH […] Column, 130 Å, 3.5 um, 4.6 mm×250 mm; mobile phase: Solvent A=water (with 0.1% formic acid), solvent B=acetonitrile (with 0.1% formic acid). Gradients: 25-45% B in 10 minutes, 45-65% B in 12 minutes, 65-90% in 6 minutes at a flow rate of 0.5 mL/min. Required amounts of the product was formulated in 1% PBSA for cell studies.
(§3) The study was conducted using SHP-77cells (Table 7) Adherent cell studies: The cells were cultured in appropriate culture media (20 mL) in tissue culture treated T150 flasks at 37° C. and 5% CO2. Adherent cells were detached (60-70% confluent) using 5 mL Versene at 37° C. for 3 min. After confirming the viability using countess and count of detached cells using Trypan blue, the cells were centrifuged at 4° C. for 5 minutes (1,000 rpm). The cell pellet obtained was washed once with PBS and resuspended in 1% PBSA to obtain the desired cell concentration (5-25 million cells/mL).
as §3, with “Suspension” for “The study was conducted using SHP-77cells (Table 7) Adherent”, “CO2.” for “CO2. Adherent cells were detached (60-70% confluent) using 5 mL Versene at 37° C. for 3 min.”, “viability” for “viability using countess”
(§4) Cell numbers used for the assay were in the range of 5 million cells/condition −25 million cells/condition.
Internalization: The resuspended cells in 300 μl of 1% PBSA and counted in the gamma counter as “bound fraction” were collected in 1.5 ml Eppendorf tube and pelleted. The pelleted cells were incubated with 300 μl of 50 mM Glycine pH=2.5 for 3 minutes and then pelleted discarding the supernatant. This process was repeated one more time. The pelleted cells were washed with 300 μl of cold 1% PBSA and then resuspended in 300 μl 0.3M NaOH. This was counted in the gamma counter as “internalized fraction”.
(§5) SHP-77 cells are human-derived, non-engineered SCLC cells.

SHP-77 cells [2] = assay: Cell binding (total uptake) of [177Lu]Lu-labeled peptide, gamma counter bound fraction; assay type: cell-based, human; settings: [177Lu]Lu-test peptide, 1 h, 37° C., 1% PBSA
Protocol: as §1, §2, §3
as §3, with “Suspension” for “The study was conducted using SHP-77cells (Table 7) Adherent”, “CO2.” for “CO2. Adherent cells were detached (60-70% confluent) using 5 mL Versene at 37° C. for 3 min.”, “viability” for “viability using countess”
as §4
Total uptake: Cells were incubated with 300 μL (0.8 μCi) of the incubation buffer (containing radiolabeled peptide [^177Lu]Lu-test peptide) for 1 hour at 37 C (Table 8). Post incubation, the cells were pelleted and washed 2 times using cold PBS+1% BSA. The supernatant and washes were combined and counted together as “unbound fraction” in a gamma counter. The cells were then resuspended in 300 μL of 1% PBS+1% BSA and counted in the gamma counter as “bound fraction”.
as §5

human DLL3 = biological target: T1, human DLL3; assay: Affinity determination by Surface Plasmon Resonance (SPR), Biacore, 1:1 binding model; settings: biotinylated human DLL3 on streptavidin chip, 25° C.; NB = nonbinding
How it was run: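 SPR with biotinylated human DLL3 captured on a streptavidin chip, with a reference surface subtracted. Samples were injected at several concentrations at 100 μL/min in phosphate buffer with 137 mM NaCl, 2.7 mM KCl, 0.05% P20 and 2% DMSO. Kinetic and affinity constants came from a 1:1 binding fit.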

[3] = biological target: DLL3 on SHP-77 cells (human) (UniProt Q9NYJ7); assay: 177Lu-labelled peptide on SHP-77 cells, 1 h 37 C, gamma count of bound fraction

Molecule	% Internalization (out of bound fraction) (SHP-77 cells [1]) [%]	% Binding (SHP-77 cells [2]) [%]	Kd (human DLL3) [nM]	% Binding [3] [%]
CC(=O)N[C@@H](CC1CCNCC1)C(=O)N(C)[C@@H](CO)C(=O)N[C@@H](CC(N)=O)C(=O)N[C@H]1CSSC[C@@H](C(=O)N2CCC[C@@]2(C)C(=O)N[C@@H](Cc2ccccc2)C(=O)N[C@@H](CC(=O)O)C(N)=O)NC(=O)[C@H](CC(N)=O)NC(=O)[C@H](Cc2ccc3ccccc3c2)NC(=O)[C@H](Cc2ccc(CNC(=O)CN3CCN(CC(=O)O)CCN(CC(=O)O)CCN(CC(=O)O)CC3)cc2)NC(=O)[C@H](CC(C)(C)C)NC(=O)[C@H](Cc2cccc3ccccc23)NC1=O [compound 192, Ac-[3-(4-piperidinyl)-Ala]-(NMe-Ser)-N-C(3)-(1Nal)-(t-Bu-Ala)-[PAF(DOTA)]-(2Nal)-D-C(3)-(aMe-P)-F-D-CONH2] (Ac-[Ala(piperidin-4-yl)][NMeS]NC[1Nal][tBuAla][Phe(4-CH2NH2)](DOTA)[2Nal]NC[αMeP]FD-NH2; disulfide 4-10)	45	9	0.27	–
CC(=O)N[C@H](C)C(=O)N(C)[C@@H](CO)C(=O)N[C@@H](CC(=O)O)C(=O)N[C@H]1C/C=C/C[C@@H](C(=O)N2CCC[C@@]2(C)C(=O)N[C@@H](Cc2ccccc2)C(=O)N[C@@H](CC(=O)O)C(N)=O)NC(=O)[C@H](CC(N)=O)NC(=O)[C@H](Cc2ccc3ccccc3c2)NC(=O)[C@H](Cc2ccc(CNC(=O)CN3CCN(CC(=O)O)CCN(CC(=O)O)CCN(CC(=O)O)CC3)cc2)NC(=O)[C@H](CC(C)(C)C)NC(=O)[C@H](Cc2cccc3ccccc23)NC1=O [compound 195, Ac-(D-Ala)-(NMe-Ser)-D-AllyG(4)-(1Nal)-(t-Bu-Ala)-[PAF(DOTA)]-(2Nal)-N-AllyG(4)-(aMe-P)-F-D-CONH2] (Ac-[dA][NMeS]D[AllylGly][1Nal][tBuAla][Phe(4-CH2NH2)](DOTA)[2Nal]N[AllylGly][αMeP]FD-NH2; staple (E) 4-10)	43	7	0.63	–
CC(=O)N[C@@H](CC1CCNCC1)C(=O)N[C@@H](CO)C(=O)N[C@@H](CC(=O)O)C(=O)N[C@H]1CC=CC[C@@H](C(=O)N2CCC[C@@]2(C)C(=O)N[C@@H](Cc2ccccc2)C(=O)N[C@@H](CC(=O)O)C(N)=O)NC(=O)[C@H](CC(N)=O)NC(=O)[C@H](Cc2ccc3ccccc3c2)NC(=O)[C@H](Cc2ccc(CNC(=O)CN3CCN(CC(=O)O)CCN(CC(=O)O)CCN(CC(=O)O)CC3)cc2)NC(=O)[C@H](CC(C)(C)C)NC(=O)[C@H](Cc2cccc3ccccc23)NC1=O [compound 200, Ac-[3-(4-piperidinyl)-Ala]-S-D-AllyG(4)-(1Nal)-(t-Bu-Ala)-[PAF(DOTA)]-(2Nal)-N-AllyG(4)-(aMe-P)-F-D-CONH2] (Ac-[Ala(piperidin-4-yl)]SD[AllylGly][1Nal][tBuAla][Phe(4-CH2NH2)](DOTA)[2Nal]N[AllylGly][αMeP]FD-NH2; staple 4-10)	46	6	0.18	–
{DOTA}-[dA]SDC[1Nal][tBuAla]Q[2Nal]NC[αMeP][Phe(2-Me)]D-NH2 (disulfide 4-10; also: 177Lu chelated) [[177Lu]Lu-Cpd #154]	–	–	–	10
Ac-[dA]SDC[1Nal][tBuAla][PAF(DOTA)][2Nal]NC[αMeP]FD-NH2 (disulfide 4-10; reading uncertain; also: 177Lu chelated, printed as Ac-(D-Ala)-S-D-C(3)-(1Nal)-(t-Bu-Ala)-[PAF(DOTA)]-(2Nal)-N-C(3)-(aMe-P)-F-D-CONH2; (3)=disulfide; 177Lu chelated) [[177Lu]Lu-Cpd #158]	–	–	–	25
Ac-[dA]SDC[1Nal][tBuAla]A[2Nal]DC[αMeP]FD[dK](DOTA)-NH2 (disulfide 4-10; also: 177Lu chelated) [[177Lu]Lu-Cpd #166]	–	–	–	7
Ac-[dA]S[αMeD]C[1Nal][tBuAla]Q[2Nal]NC[αMeP]FD[dK](DOTA)-NH2 (disulfide 4-10; also: 177Lu chelated) [[177Lu]Lu-Cpd #168]	–	–	–	8
{DOTA}-[Ahx]SDC[1Nal][tBuAla][Ala(piperidin-4-yl)][2Nal]NC[αMeP]FD-NH2 (disulfide 4-10; also: 177Lu chelated) [[177Lu]Lu-Cpd #176]	–	–	–	6
Ac-[Ala(piperidin-4-yl)][NMeS]DC[1Nal][tBuAla][PAF(DOTA)][2Nal]NC[αMeP]FD-NH2 (disulfide 4-10; reading uncertain; also: 177Lu chelated, printed as Ac-[3-(4-piperidinyl)-Ala]-(NMe-Ser)-D-C(3)-(1Nal)-(t-Bu-Ala)-[PAF(DOTA)]-(2Nal)-N-C(3)-(aMe-P)-F-D-CONH2; (3)=disulfide; 177Lu chelated) [[177Lu]Lu-Cpd #191]	–	–	–	10
Ac-[Ala(piperidin-4-yl)][NMeS]NC[1Nal][tBuAla][PAF(DOTA)][2Nal]DC[αMeP]FD-NH2 (disulfide 4-10; reading uncertain; also: 177Lu chelated, printed as Ac-[3-(4-piperidinyl)-Ala]-(NMe-Ser)-N-C(3)-(1Nal)-(t-Bu-Ala)-[PAF(DOTA)]-(2Nal)-D-C(3)-(aMe-P)-F-D-CONH2; (3)=disulfide; 177Lu chelated) [[177Lu]Lu-Cpd #192]	–	–	–	9
Ac-[dA][NMeS]D[AllylGly][1Nal][tBuAla][PAF(DOTA)][2Nal]N[AllylGly][αMeP]FD-NH2 (staple 4-10; reading uncertain; also: 177Lu chelated) [[177Lu]Lu-Cpd #195]	–	–	–	7
Ac-[Ala(piperidin-4-yl)]SD[AllylGly][1Nal][tBuAla][PAF(DOTA)][2Nal]N[AllylGly][αMeP]FD-NH2 (staple 4-10; reading uncertain; also: 177Lu chelated) [[177Lu]Lu-Cpd #200]	–	–	–	6
